# Values quoted from earlier work as cited in patent publication US9949941B2, “GABA analog prodrug sustained release oral dosage forms” (XENOPORT, INC., priority 2004, dated 2018).
# Experiments:
# [1] = dosed either orally or directly into the colon of a mammal
Compound,bioavailability as gabapentin [1],Tmax following administration of gabapentin alone (fasted and fed patients) [h],typical Tmax of immediate release gabapentin (immediate release gabapentin) [h]
"CC(OC(=O)NCC1(CC(=O)O)CCCCC1)OC(=O)C(C)C (stereo not drawn) [Compound (1), 1-{[(α-isobutanoyloxyethoxy)carbonyl]aminomethyl}-1-cyclohexane acetic acid]",high bioavailability,,
NCC1(CC(=O)O)CCCCC1 [gabapentin],,2 to 4,2 to 4
